Measurements reported in ChEMBL document CHEMBL1201862, “PubChem BioAssay data set” (2004).
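Following 48 hours of exposure in 96-well plates, responses at five concentrations were used to interpolate endpoints linearly. The concentration for 50% growth inhibition is given as GI50.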 Calls of active or inactive are those of the source. Rule as the data show it: active = GI50 up to about 1.1 µM and inactive = higher.

What was measured:
Assay in all cases: inhibition of tumour cell growth, NCI panel, 48 h
[1] = test system: SF-539
[2] = test system: OVCAR-8
[3] = test system: COLO 205
[4] = test system: SNB-75
[5] = test system: DLD-1
[6] = test system: HCT-116
[7] = test system: K562
[8] = test system: MOLT-4
[9] = test system: SF-268
[10] = test system: NCI-H23
[11] = test system: M14
[12] = test system: OVCAR-5
[13] = test system: SK-MEL-2
[14] = test system: LOX IMVI
[15] = test system: RXF 393
[16] = test system: SNB-19
[17] = test system: T47D
[18] = test system: MDA-N
[19] = test system: DU-145
[20] = test system: MDA-MB-231

Row | Structure (SMILES) | GI50 [1] | GI50 [2] | GI50 [3] | GI50 [4] | GI50 [5] | GI50 [6] | GI50 [7] | GI50 [8] | GI50 [9] | GI50 [10] | GI50 [11] | GI50 [12] | GI50 [13] | GI50 [14] | GI50 [15] | GI50 [16] | GI50 [17] | GI50 [18] | GI50 [19] | GI50 [20]
1 | CCn1c2ccccc2c2ccc3c(c21)C(=O)C=CC3=O | 26.2 µM (inactive) | 13.7 µM (inactive) | 9.55 µM (inactive) | 29.6 µM (inactive) | 3.85 µM (inactive) | 4.47 µM (inactive) | 2.29 µM (inactive) | 2.07 µM (inactive) | 19.9 µM (inactive) | 22.5 µM (inactive) | 3.93 µM (inactive) | 21.5 µM (inactive) | 21.1 µM (inactive) |  |  |  |  |  |  | 
2 | CC1(c2ccccc2)CC(c2cccc([N+](=O)[O-])c2)=NO1 (stereo not given) | > 100 µM (inactive) | > 100 µM (inactive) | > 100 µM (inactive) | > 100 µM (inactive) | > 100 µM (inactive) | > 100 µM (inactive) |  | 56.2 µM (inactive) | > 100 µM (inactive) | 89.1 µM (inactive) | > 100 µM (inactive) | > 100 µM (inactive) | > 100 µM (inactive) |  |  |  |  |  |  | 
3 | CCN(CC)c1c(C(=O)/C=C/c2ccc(F)cc2)c(-c2ccccc2)nn(C)c1=O |  | 4.7 µM (inactive) | 4.25 µM (inactive) | 4.51 µM (inactive) | 3.63 µM (inactive) | 3.87 µM (inactive) | 12.4 µM (inactive) | 2.23 µM (inactive) | 8.79 µM (inactive) | 4.12 µM (inactive) | 12.1 µM (inactive) | 22.4 µM (inactive) | 4.66 µM (inactive) | 7.35 µM (inactive) | 3.13 µM (inactive) | 17 µM (inactive) |  |  |  | 
4 | NC1=NN(c2ccccc2)C(=O)C1C(=O)C(=O)Nc1ccc(Cl)c(Cl)c1 (stereo not given) | > 100 µM (inactive) | > 100 µM (inactive) | > 100 µM (inactive) | 37.2 µM (inactive) | > 100 µM (inactive) | > 100 µM (inactive) | 32 µM (inactive) | > 100 µM (inactive) | > 100 µM (inactive) | > 100 µM (inactive) | > 100 µM (inactive) | > 100 µM (inactive) | > 100 µM (inactive) |  | > 100 µM (inactive) | 1.06 µM (active) |  |  |  | 
5 | COc1ccc2ccnc(Cc3ccc(OCc4ccccc4)c(OC)c3)c2c1 | 17.2 µM (inactive) | 19.1 µM (inactive) |  | 27 µM (inactive) | 25.5 µM (inactive) | 16.1 µM (inactive) | 31 µM (inactive) | 17.6 µM (inactive) | 22.1 µM (inactive) | 19.8 µM (inactive) | 18 µM (inactive) | 40.3 µM (inactive) | 20.7 µM (inactive) |  |  | 85.9 µM (inactive) |  |  |  | 
6 | COc1cc(C(CC(OC)OC)=C(C#N)C#N)cc(OC)c1OC | 13.7 µM (inactive) | 20 µM (inactive) | 9.35 µM (inactive) | 22.8 µM (inactive) | 3.58 µM (inactive) | 18.2 µM (inactive) |  | 7.26 µM (inactive) | 41.6 µM (inactive) | 28.1 µM (inactive) |  | > 100 µM (inactive) | 21.9 µM (inactive) | 10.5 µM (inactive) | 25.2 µM (inactive) | 39.5 µM (inactive) |  |  |  | 
7 | C/C(CC(=O)Nc1cc(Cl)c(Cl)cc1Cl)=N\NS(=O)(=O)c1ccc(C)cc1 | 30.5 µM (inactive) | 39.3 µM (inactive) | 26.8 µM (inactive) | 32.6 µM (inactive) | 33.4 µM (inactive) | 23 µM (inactive) | 35.5 µM (inactive) | 29.5 µM (inactive) | 29.3 µM (inactive) | 21.6 µM (inactive) | 34.8 µM (inactive) | 53.8 µM (inactive) | 28.9 µM (inactive) | 39.3 µM (inactive) | 24.9 µM (inactive) |  |  |  |  | 
8 | CCN(CC)C(=O)Cc1c(C(=O)N(CC)CC)c(=O)nc2sccn12 | > 100 µM (inactive) | > 100 µM (inactive) | > 100 µM (inactive) | > 100 µM (inactive) | > 100 µM (inactive) | > 100 µM (inactive) | > 100 µM (inactive) | > 100 µM (inactive) | > 100 µM (inactive) | > 100 µM (inactive) | > 100 µM (inactive) |  | > 100 µM (inactive) | > 100 µM (inactive) | > 100 µM (inactive) | > 100 µM (inactive) |  |  |  | 
9 | CON(C)C(=O)CCCO | > 100 µM (inactive) | > 100 µM (inactive) | > 100 µM (inactive) | > 100 µM (inactive) | > 100 µM (inactive) | > 100 µM (inactive) | > 100 µM (inactive) | > 100 µM (inactive) | > 100 µM (inactive) | > 100 µM (inactive) | > 100 µM (inactive) |  | > 100 µM (inactive) |  | > 100 µM (inactive) | > 100 µM (inactive) |  |  |  | 
10 | c1ccc2c(NCCCCCCNc3cccc4ccccc34)cccc2c1 | > 100 µM (inactive) | > 100 µM (inactive) | > 100 µM (inactive) | 2.77 µM (inactive) | > 100 µM (inactive) | > 100 µM (inactive) | > 100 µM (inactive) | 44.3 µM (inactive) | > 100 µM (inactive) | 75.3 µM (inactive) | > 100 µM (inactive) | > 100 µM (inactive) | > 100 µM (inactive) |  |  | > 100 µM (inactive) |  |  |  | 
11 | COc1ccc(C(=O)O[C@H]2[C@@H]3C=CO[C@@H](OC4OC(CO)C(O)C(O)C4O)[C@@H]3[C@@]3(CO)O[C@@H]23)cc1O (stereo not given in full) | > 100 µM (inactive) | > 100 µM (inactive) | > 100 µM (inactive) | > 100 µM (inactive) | > 100 µM (inactive) |  | > 100 µM (inactive) | > 100 µM (inactive) | > 100 µM (inactive) | > 100 µM (inactive) | > 100 µM (inactive) | > 100 µM (inactive) | > 100 µM (inactive) | > 100 µM (inactive) | > 100 µM (inactive) | > 100 µM (inactive) |  |  |  | 
12 | Cc1c2ccccc2c(=O)n2c(-c3ccccn3)cccc12 | > 100 µM (inactive) | > 100 µM (inactive) | > 100 µM (inactive) | > 100 µM (inactive) | > 100 µM (inactive) | > 100 µM (inactive) | > 100 µM (inactive) | 79.8 µM (inactive) | > 100 µM (inactive) | > 100 µM (inactive) | 78.7 µM (inactive) | > 10 µM (inactive) | > 100 µM (inactive) | > 100 µM (inactive) | > 100 µM (inactive) | > 100 µM (inactive) |  |  |  | 
13 | Cn1c2c(c3ccccc31)CCN(CCN1CCN(c3cccc(Cl)c3)CC1)C2=O | > 100 µM (inactive) | > 100 µM (inactive) | 40.7 µM (inactive) |  | 20.7 µM (inactive) | 40.5 µM (inactive) | 35.3 µM (inactive) | 43.8 µM (inactive) | > 100 µM (inactive) | 35.8 µM (inactive) | 46 µM (inactive) |  |  | 57.9 µM (inactive) | 67.1 µM (inactive) |  |  |  |  | 
14 | C=CCC1C(=O)CC2(C)C(CC=C)C(=O)CC12C (stereo not given) | > 100 µM (inactive) | > 100 µM (inactive) | > 100 µM (inactive) | > 100 µM (inactive) | > 100 µM (inactive) | > 100 µM (inactive) | > 100 µM (inactive) | > 100 µM (inactive) |  | > 100 µM (inactive) | > 100 µM (inactive) | > 100 µM (inactive) | > 100 µM (inactive) | > 100 µM (inactive) |  | > 100 µM (inactive) |  |  |  | 
15 | CS(=O)(=O)OCCN1CCN(C(=O)c2ccc(Cl)c3c(Nc4ccc(S(=O)(=O)N=C(N)N)cc4)c4ccccc4nc23)CC1 | > 100 µM (inactive) | > 100 µM (inactive) | > 100 µM (inactive) | > 100 µM (inactive) | > 100 µM (inactive) | > 100 µM (inactive) | > 100 µM (inactive) | > 100 µM (inactive) | > 100 µM (inactive) | > 100 µM (inactive) | > 100 µM (inactive) | > 100 µM (inactive) | > 100 µM (inactive) |  | > 100 µM (inactive) | > 100 µM (inactive) |  |  |  | 
16 | C=Cc1ccc(C)[n+](C[Si](C)(C)O[Si](C)(C)C)c1 | > 100 µM (inactive) | > 100 µM (inactive) | > 100 µM (inactive) | > 100 µM (inactive) | > 100 µM (inactive) | > 100 µM (inactive) | > 100 µM (inactive) | > 100 µM (inactive) | > 100 µM (inactive) | > 100 µM (inactive) | > 100 µM (inactive) | > 100 µM (inactive) | > 100 µM (inactive) | > 100 µM (inactive) |  | > 100 µM (inactive) |  |  |  | 
17 | Cc1c(O)c(=O)ccn1C1OC(CO)C(O)C1O (stereo not given) |  | > 100 µM (inactive) | > 100 µM (inactive) | > 100 µM (inactive) | 91.8 µM (inactive) | 62.1 µM (inactive) | 50.4 µM (inactive) | 67.1 µM (inactive) | > 100 µM (inactive) |  | > 100 µM (inactive) | > 100 µM (inactive) | > 100 µM (inactive) | 56.2 µM (inactive) | > 100 µM (inactive) | > 100 µM (inactive) |  |  |  | 
18 | C/C(=C\c1csc(C)n1)[C@@H]1C[C@@H]2O[C@@H]2CCC[C@H](C)[C@H](O)[C@@H](C)C(=O)C(C)(C)[C@@H](O)CC(=O)O1 [EPOTHILONE A] | < 0.0001 µM (active) | < 0.0001 µM (active) | < 0.0001 µM (active) | < 0.0001 µM (active) |  | < 0.0001 µM (active) | < 0.0001 µM (active) | < 0.0001 µM (active) | < 0.0001 µM (active) | < 0.0001 µM (active) | < 0.0001 µM (active) | < 0.0001 µM (active) | < 0.0001 µM (active) | < 0.0001 µM (active) | < 0.0001 µM (active) | < 0.0001 µM (active) | < 0.0001 µM (active) | < 0.0001 µM (active) | < 0.0001 µM (active) | < 0.0001 µM (active)
